Tests used:
Test in all cases: Cell panel screen (CellTiter-Glo)
Type in all cases: cell-based, human
[1] = test system: A498; settings: A498 (listed under Lung), 20 micromolar, 72 hrs
Outline: (§1)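 Growth inhibition (%) was determined from luminescence proportional to cellular ATP after cells had been incubated with compound (20 μM final) for 72 h at 37°C, with matched DMSO controls and cell-free wells defining the range.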

[2] = test system: A704; settings: A704 (Kidney), 20 micromolar, 72 hrs
Outline: as §1

[3] = test system: BT-474; settings: BT-474 (Breast), 20 micromolar, 72 hrs
Outline: as §1

[4] = test system: BT-549; settings: BT-549 (Breast), 20 micromolar, 72 hrs
Outline: as §1

[5] = test system: Bel-7402; settings: Bel-7402 (Liver), 20 micromolar, 72 hrs
Outline: as §1

[6] = test system: C3A; settings: C3A (Liver), 20 micromolar, 72 hrs
Outline: as §1

[7] = test system: C8166; settings: C8166 (Leukemia), 20 micromolar, 72 hrs
Outline: as §1

[8] = test system: CCF-STTG1; settings: CCF-STTG1 (Brain), 20 micromolar, 72 hrs
Outline: as §1

[9] = test system: CW-2; settings: CW-2 (Colon), 20 micromolar, 72 hrs
Outline: as §1

[10] = test system: ChaGo-K-1; settings: ChaGo-K-1 (Lung), 20 micromolar, 72 hrs
Outline: as §1

[11] = test system: Colo 205; settings: Colo 205, 20 micromolar, 72 hrs
Outline: as §1

[12] = test system: HCC1395; settings: HCC1395 (Breast), 20 micromolar, 72 hrs
Outline: as §1

[13] = test system: HCC1569; settings: HCC1569 (Breast), 20 micromolar, 72 hrs
Outline: as §1

[14] = test system: HCC1599; settings: HCC1599 (Breast), 20 micromolar, 72 hrs
Outline: as §1

[15] = test system: HCC1937; settings: HCC1937 (Breast), 20 micromolar, 72 hrs
Outline: as §1

[16] = test system: HEC-1-A; settings: HEC-1-A (Uterus), 20 micromolar, 72 hrs
Outline: as §1

[17] = test system: HGC-27; settings: HGC-27 (Stomach), 20 micromolar, 72 hrs
Outline: as §1

[18] = test system: HPAF-II; settings: HPAF-II (Pancreas), 20 micromolar, 72 hrs
Outline: as §1

[19] = test system: HT-1197; settings: HT-1197 (Urinary bladder), 20 micromolar, 72 hrs
Outline: as §1

[20] = test system: J82; settings: J82 (Urinary bladder), 20 micromolar, 72 hrs
Outline: as §1

[21] = test system: M059J; settings: M059J (Brain), 20 micromolar, 72 hrs
Outline: as §1

[22] = test system: MSTO-211-H; settings: MSTO-211-H (Lung), 20 micromolar, 72 hrs
Outline: as §1

[23] = test system: NCI-H1623; settings: NCI-H1623 (Lung), 20 micromolar, 72 hrs
Outline: as §1

[24] = test system: NCI-H1694; settings: NCI-H1694 (Lung), 20 micromolar, 72 hrs
Outline: as §1

[25] = test system: NCI-H1770; settings: NCI-H1770 (Lung), 20 micromolar, 72 hrs
Outline: as §1

[26] = test system: NCI-H2347; settings: NCI-H2347 (Lung), 20 micromolar, 72 hrs
Outline: as §1

[27] = test system: NCI-H2405; settings: NCI-H2405 (Lung), 20 micromolar, 72 hrs
Outline: as §1

[28] = test system: NCI-H28; settings: NCI-H28 (Lung), 20 micromolar, 72 hrs
Outline: as §1

[29] = test system: NCI-H524; settings: NCI-H524 (Lung), 20 micromolar, 72 hrs
Outline: as §1

[30] = test system: Panc 03.27; settings: Panc 03.27 (Pancreas), 20 micromolar, 72 hrs
Outline: as §1

[31] = test system: RL95; settings: RL95 (Uterus), 20 micromolar, 72 hrs
Outline: as §1

[32] = test system: SW13; settings: SW13 (Adrenal gland), 20 micromolar, 72 hrs
Outline: as §1

[33] = test system: T47D; settings: T47D (Breast), 20 micromolar, 72 hrs
Outline: as §1

[34] = test system: T98G; settings: T98G (Brain), 20 micromolar, 72 hrs
Outline: as §1

[35] = test system: TCCSUP; settings: TCCSUP (Urinary bladder), 20 micromolar, 72 hrs
Outline: as §1

[36] = test system: ZR-75-30; settings: ZR-75-30 (Breast), 20 micromolar, 72 hrs
Outline: as §1

| Compound | Percent Inhibition [1] [%] | Percent Inhibition [2] [%] | Percent Inhibition [3] [%] | Percent Inhibition [4] [%] | Percent Inhibition [5] [%] | Percent Inhibition [6] [%] | Percent Inhibition [7] [%] | Percent Inhibition [8] [%] | Percent Inhibition [9] [%] | Percent Inhibition [10] [%] | Percent Inhibition [11] [%] | Percent Inhibition [12] [%] | Percent Inhibition [13] [%] | Percent Inhibition [14] [%] | Percent Inhibition [15] [%] | Percent Inhibition [16] [%] | Percent Inhibition [17] [%] | Percent Inhibition [18] [%] | Percent Inhibition [19] [%] | Percent Inhibition [20] [%] | also measured |
| --- | --- | --- | --- | --- | --- | --- | --- | --- | --- | --- | --- | --- | --- | --- | --- | --- | --- | --- | --- | --- | --- |
| O=C1c2c(O)cc(O)cc2OC(c2ccc(O)cc2)C1c1c(O)cc(O)c2c(=O)cc(-c3ccc(O)c(O)c3)oc12 (stereo not drawn) [WZ-4] | 4 | -1 | -5 | -12 | -3 | -2 | -3 | 0 | 11 | -14 | -6 | 16 | -17 | 8 | 0 | 10 | -4 | -10 | -4 | -5 | Percent Inhibition [21]: -1%; Percent Inhibition [22]: 6%; Percent Inhibition [23]: -15%; Percent Inhibition [24]: -10%; Percent Inhibition [25]: -10%; Percent Inhibition [26]: -4%; Percent Inhibition [27]: -14%; Percent Inhibition [28]: 0%; Percent Inhibition [29]: -18%; Percent Inhibition [30]: -16%; Percent Inhibition [31]: -2%; Percent Inhibition [32]: 5%; Percent Inhibition [33]: 6%; Percent Inhibition [34]: -2%; Percent Inhibition [35]: 3%; Percent Inhibition [36]: 8% |
| C=C(C)C(O)Cc1c(O)cc2oc3cc(O)c(O)c(CC=C(C)C)c3c(=O)c2c1O (stereo not drawn) [bn-17, Bannaxanthone B] | 54 | 19 | 27 | 34 | 57 | 39 | 71 | 43 | 68 | 73 | 57 | 83 | 51 | 84 | 58 | 46 | 62 | 14 | 44 | 52 | Percent Inhibition [21]: 48%; Percent Inhibition [22]: 70%; Percent Inhibition [23]: 20%; Percent Inhibition [24]: 96%; Percent Inhibition [25]: 12%; Percent Inhibition [26]: 23%; Percent Inhibition [27]: 7%; Percent Inhibition [28]: 69%; Percent Inhibition [29]: -19%; Percent Inhibition [30]: 44%; Percent Inhibition [31]: 45%; Percent Inhibition [32]: 52%; Percent Inhibition [33]: 45%; Percent Inhibition [34]: 94%; Percent Inhibition [35]: 79%; Percent Inhibition [36]: 81% |
| CC(C)=CCc1c(O)c(O)cc2oc3cc(O)cc(O)c3c(=O)c12 [bn-10, 1,3,6,7-tetrahydroxy-8-(3-methylbut-2-enyl)xanthone] | 25 | -11 | -3 | -4 | 7 | 20 | 23 | 8 | 25 | 18 | 19 | 8 | 16 | 77 | 32 | 22 | 30 | -2 | 8 | 29 | Percent Inhibition [21]: 9%; Percent Inhibition [22]: 4%; Percent Inhibition [23]: -10%; Percent Inhibition [24]: 28%; Percent Inhibition [25]: 0%; Percent Inhibition [26]: 9%; Percent Inhibition [27]: -8%; Percent Inhibition [28]: 12%; Percent Inhibition [29]: -20%; Percent Inhibition [30]: -1%; Percent Inhibition [31]: 15%; Percent Inhibition [32]: 11%; Percent Inhibition [33]: 4%; Percent Inhibition [34]: 21%; Percent Inhibition [35]: 33%; Percent Inhibition [36]: 77% |
